According to patent US8679746B2, “Compositions and methods for predicting outcome of treatment” (Dako Denmark A/S, priority 2005, dated 2014):

What was measured:
[1] = test system: metastatic head and neck cancer; assay: 5-FU infusion in a patient with metastatic head and neck cancer; type: in vivo; details: one patient; 1000 mg/m^2 per 24 hours, 120 hours infusion; evaluated after one and a half month
Procedure: A patient with metastatic head and neck cancer was treated with 5-fluorouracil (5-FU) infusion at a dose of 1000 mg/m^2 per 24 hours. The total infusion time was 120 hours.

[2] = cited from earlier work
[3] = test system: breast cancer; details: in vivo; cited from earlier work

Question: Which treatment response [1] does the source give for O=c1[nH]cc(F)c(=O)[nH]1 [5-FU, 5-Fluorouracil] here?
Answer: progressive disease

Question: For CCCCCOC(=O)Nc1nc(=O)n([C@@H]2O[C@H](C)[C@@H](O)[C@H]2O)cc1F [capecitabine], which “higher concentrations in tumor tissue compared to plasma” value ([2]; tumor tissue vs plasma) is on record?
Answer: 21 fold

Question: What about the “higher FU concentration in tumor compared to normal tissue” value ([2]; tumor vs normal tissue) of the same molecule?
Answer: 3.2 fold

Question: For COc1cccc2c1C(=O)c1c(O)c3c(c(O)c1C2=O)C[C@@](O)(C(=O)CO)C[C@@H]3O[C@H]1C[C@H](N)[C@@H](O)[C@H](C)O1 [epirubicin], which “reduction in overall survival on substitution of methotrexate in CMF with epirubicin” value [3] is on record?
Answer: 25%
